Measurements taken from patent publication US12577234B2, “Antagonists of the muscarinic acetylcholine receptor M4” (Vanderbilt University, priority 2017, dated 2026).

Molecular target: T1, human mAChR M4 (Homo sapiens, UniProt P08173)
T1 construct: expressed in transfected cells; host or cells: CHO-K1 (ATCC), stably co-expressing chimeric G protein Gqi5
T1 sequence (P08173 1-479): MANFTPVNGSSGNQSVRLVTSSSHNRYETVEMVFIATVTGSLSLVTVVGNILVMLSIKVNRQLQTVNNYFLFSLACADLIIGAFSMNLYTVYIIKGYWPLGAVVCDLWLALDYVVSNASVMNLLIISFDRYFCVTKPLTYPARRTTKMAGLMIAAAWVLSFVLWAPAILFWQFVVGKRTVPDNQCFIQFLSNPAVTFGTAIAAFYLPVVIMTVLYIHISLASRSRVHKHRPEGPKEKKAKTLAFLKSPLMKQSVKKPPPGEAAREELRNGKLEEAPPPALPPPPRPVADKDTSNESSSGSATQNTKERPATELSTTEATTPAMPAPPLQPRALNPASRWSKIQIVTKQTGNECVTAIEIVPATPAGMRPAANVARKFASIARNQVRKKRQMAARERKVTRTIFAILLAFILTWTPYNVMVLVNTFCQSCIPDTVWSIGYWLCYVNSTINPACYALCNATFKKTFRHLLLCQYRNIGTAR
Test: mAChR M4 cell-based functional assay (calcium mobilization, EC80 acetylcholine), human M4
Conditions: for IC50: M4/Gqi5/CHO-K1 cells, decrease of EC80 acetylcholine response
Procedure, shortened: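 CHO-K1 cells stably expressing human M4 with chimeric Gqi5; intracellular calcium rise read on FDSS as fluorescence static ratio at 1 Hz. Compounds in 10-point 1:3 dilution series; IC50 taken as concentration-dependent decrease of the EC80 acetylcholine response, four-parameter logistic fit.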

Human M4 Emin (Table 10) [%] | IC50 (Table 10) [nM] | IC50 (Table 9) [nM] | Emin (Table 9, human M4, % ACh maximum at 30 μM) [%] | Structure (SMILES)
10 | 1090 |  |  | CC(=O)Nc1ccc(-c2cnc(N[C@H]3C[C@@H]4CN(CC5CCOCC5)C[C@@H]4C3)cn2)cc1 [Compound 158, N-[4-[5-[[(3aR,5s,6aS)-2-(tetrahydropyran-4-ylmethyl)-3,3a,4,5,6,6a-hexahydro-1H-cyclopenta[c]pyrrol-5-yl]amino]pyrazin-2-yl]phenyl]acetamide]
4 | 4.6 |  |  | Fc1ccc(-c2ccc(N[C@H]3C[C@@H]4CN(CC5CCOCC5)C[C@@H]4C3)nn2)cc1 [Compound 187, (3aR,5s,6aS)-N-[6-(4-fluorophenyl)pyridazin-3-yl]-2-(tetrahydropyran-4-ylmethyl)-3,3a,4,5,6,6a-hexahydro-1H-cyclopenta[c]pyrrol-5-amine]
 |  | 14.6 | 6.22 | Fc1ccc(Cl)c(-c2ccc(N[C@H]3C[C@@H]4CN(Cc5ccccc5F)C[C@@H]4C3)nn2)c1 [Compound 36, (3aR,5s,6aS)-N-[6-(2-chloro-5-fluoro-phenyl)pyridazin-3-yl]-2-[(2-fluorophenyl)methyl]-3,3a,4,5,6,6a-hexahydro-1H-cyclopenta[c]pyrrol-5-amine]
5 | 1070 |  |  | CC(=O)Nc1ccc(-c2ccc(O[C@H]3C[C@@H]4CN(Cc5ncccc5C)C[C@@H]4C3)nn2)cc1 [Compound 133, N-[4-[6-[[(3aR,5s,6aS)-2-[(3-methyl-2-pyridyl)methyl]-3,3a,4,5,6,6a-hexahydro-1H-cyclopenta[c]pyrrol-5-yl]oxy]pyridazin-3-yl]phenyl]acetamide]
3 | 65 |  |  | Fc1ccc(Cl)c(-c2ccc(N[C@H]3C[C@@H]4CN(Cc5cnc6ccccc6c5)C[C@@H]4C3)nn2)c1 [Compound 164, (3aR,5s,6aS)-N-[6-(2-chloro-5-fluoro-phenyl)pyridazin-3-yl]-2-(3-quinolylmethyl)-3,3a,4,5,6,6a-hexahydro-1H-cyclopenta[c]pyrrol-5-amine]
3 | 4.52 |  |  | Fc1ccc(Cl)c(-c2ccc(N[C@H]3C[C@@H]4CN(Cc5ccncc5)C[C@@H]4C3)nn2)c1 [Compound 162, (3aR,5s,6aS)-N-[6-(2-chloro-5-fluoro-phenyl)pyridazin-3-yl]-2-(4-pyridylmethyl)-3,3a,4,5,6,6a-hexahydro-1H-cyclopenta[c]pyrrol-5-amine]
 |  | 0.7 |  | CCC(C)CN1C[C@H]2C[C@H](Nc3ccc(-c4cn(C)nc4C)nn3)C[C@H]2C1 (stereo partly shown) [compound 13]
4 | 0.293 |  |  | Cc1ccc(F)cc1-c1ccc(N[C@H]2C[C@@H]3CN(CC4CCOCC4)C[C@@H]3C2)nn1 [Compound 214, (3aR,5s,6aS)-N-[6-(5-fluoro-2-methyl-phenyl)pyridazin-3-yl]-2-(tetrahydropyran-4-ylmethyl)-3,3a,4,5,6,6a-hexahydro-1H-cyclopenta[c]pyrrol-5-amine]
4 | 0.432 |  |  | Fc1cccc(Cl)c1-c1ccc(N[C@H]2C[C@@H]3CN(CC4CCOCC4)C[C@@H]3C2)nn1 [Compound 204, (3aR,5s,6aS)-N-[6-(2-chloro-6-fluoro-phenyl)pyridazin-3-yl]-2-(tetrahydropyran-4-ylmethyl)-3,3a,4,5,6,6a-hexahydro-1H-cyclopenta[c]pyrrol-5-amine]
3 | 77.3 |  |  | Cc1nn(C)cc1-c1ccc(N[C@H]2C[C@@H]3CN(CC4CC5C=CC4C5)C[C@@H]3C2)nc1 (stereo partly drawn) [Compound 151, (3aR,5s,6aS)-2-(5-bicyclo[2.2.1]hept-2-enylmethyl)-N-[5-(1,3-dimethylpyrazol-4-yl)-2-pyridyl]-3,3a,4,5,6,6a-hexahydro-1H-cyclopenta[c]pyrrol-5-amine]
